These results are taken from patent publication US20080219975A1, “VEGFR3 INHIBITORS” (priority 2006, published 2008).

Each structure is given as a SMILES string.

The target in data set [1] is T1, VEGFR3 (Homo sapiens, UniProt P35916). As to the kind of experiment: Inhibition of VEGF-C induced VEGFR-3 phosphorylation in PAE cells stably expressing human VEGFR-3. The conditions noted are these: PAE cells expressing human VEGFR-3, 100 ng/ml VEGF-C, Western blot (FIG. 1). On the set-up: expressed in transfected cells; host or cells: porcine aortic endothelial (PAE) cells. The class given is cell-based.
T1 sequence (P35916 25-1363): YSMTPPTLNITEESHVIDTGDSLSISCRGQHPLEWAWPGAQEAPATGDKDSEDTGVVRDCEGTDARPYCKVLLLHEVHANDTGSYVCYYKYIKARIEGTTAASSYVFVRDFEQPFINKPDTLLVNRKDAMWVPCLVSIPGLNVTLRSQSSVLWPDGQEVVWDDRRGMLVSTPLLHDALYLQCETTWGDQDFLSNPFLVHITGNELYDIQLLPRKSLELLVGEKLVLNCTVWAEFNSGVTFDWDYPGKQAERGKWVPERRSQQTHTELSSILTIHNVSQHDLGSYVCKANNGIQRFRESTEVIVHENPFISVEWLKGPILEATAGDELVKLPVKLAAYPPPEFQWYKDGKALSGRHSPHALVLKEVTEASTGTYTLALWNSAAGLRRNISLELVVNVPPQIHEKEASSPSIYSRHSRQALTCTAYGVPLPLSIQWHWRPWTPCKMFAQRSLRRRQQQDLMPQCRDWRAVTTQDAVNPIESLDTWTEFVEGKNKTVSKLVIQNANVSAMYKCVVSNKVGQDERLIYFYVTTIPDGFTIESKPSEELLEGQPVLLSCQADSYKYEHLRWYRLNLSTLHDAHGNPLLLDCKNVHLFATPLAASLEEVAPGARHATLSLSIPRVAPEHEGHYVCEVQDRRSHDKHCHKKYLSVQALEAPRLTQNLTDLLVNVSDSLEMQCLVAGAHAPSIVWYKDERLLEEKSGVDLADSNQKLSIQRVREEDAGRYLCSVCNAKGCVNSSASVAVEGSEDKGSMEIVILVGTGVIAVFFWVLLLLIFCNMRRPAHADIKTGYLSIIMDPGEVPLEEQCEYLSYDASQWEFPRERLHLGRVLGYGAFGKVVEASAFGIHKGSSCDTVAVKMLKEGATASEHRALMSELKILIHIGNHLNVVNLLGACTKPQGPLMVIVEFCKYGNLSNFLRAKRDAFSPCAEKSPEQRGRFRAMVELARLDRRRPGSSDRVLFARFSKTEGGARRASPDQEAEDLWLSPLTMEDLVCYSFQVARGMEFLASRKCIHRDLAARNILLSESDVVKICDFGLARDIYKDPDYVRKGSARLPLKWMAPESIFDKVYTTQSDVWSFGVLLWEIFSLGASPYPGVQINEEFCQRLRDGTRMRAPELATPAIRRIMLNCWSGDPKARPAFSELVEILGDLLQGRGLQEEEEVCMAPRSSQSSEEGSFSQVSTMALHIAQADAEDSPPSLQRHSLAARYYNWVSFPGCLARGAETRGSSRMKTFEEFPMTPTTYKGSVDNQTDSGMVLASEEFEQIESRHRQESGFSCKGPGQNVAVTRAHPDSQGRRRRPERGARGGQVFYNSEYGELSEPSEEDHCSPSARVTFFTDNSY
Protocol: For this assay, porcine aortic endothelial (PAE) cells stably expressing human VEGFR-3 were grown to confluency on 10 cm dishes. The cells were serum starved overnight and the media replaced with fresh serum-free media. […] This was followed by the addition of VEGF-C to a final concentration of 100 ng/ml and the cells incubated for 10 min at 37° C., after which they were washed with ice-cold PBS and then lysed. Cell lysates containing protease inhibitors were subjected to immunoprecipitation with an antibody specific for VEGFR-3 and the immunoprecipitates separated by SDS-PAGE. Proteins were transferred to a nitrocellulose membrane, and then probed first with a phospho-tyrosine antibody and then a VEGFR-3 antibody.

Data set [2] deals with VEGFR3 dependent VEGF-C stimulation of Erk1/2. Nature of the data set: Inhibition of Erk activation induced by VEGF-C in HMVEC-d cells. The class given is cell-based, human. Conditions: 5 μM, 100 ng/ml VEGF-C (FIG. 2). The protocol:
(§1) HMVEC-d cells (Cambrex) were cultured at 37 C in 5% CO2 in appropriate serum containing medium (Cambrex) on fibronectin coated 12-well plates (BD Biocoat, Becton Dickinson) for 4 days. Cells were then starved for 16 hours in the same medium as before, but lacking serum and containing SITE+3 (Invitrogen) instead. Cells were then preincubated with DMSO at 0.2% (the solvent) or 5 uM Compound 2 for 60 minutes and then either 10 ng/ml VEGF or 100 ng/ml VEGF-C (R&D systems) was added to the cells. Before, or 10 and 30 minutes after stimulation, the medium was removed, cells were rinsed with ice-cold PBS containing 0.1 mM sodiumorthovanadate and lysed in M-PER buffer (PIERCE) containing 0.1% SDS, and 1× phosphatase and protease inhibitors (HALT, PIERCE). Cells were scraped off the plates and incubated in lysis buffer for 30 minutes on ice and then centrifuged at 4° C. for 10 min at 16000×g. Lysates were quantified using the BCA reagent according to the manufacturer's instructions (PIERCE), and […] of total protein was loaded on SDS-polyacrylamide gels (NUPAGE, Invitrogen). Electrophoresis and blotting onto PVDF membranes was all performed using reagents from the NUPAGE system, according to the manufacturer's instructions. […]

Data set [3] deals with Xenopus tadpoles. As to the kind of experiment: VEGFR3 in vivo Xenopus assay (lymphangiogenesis, LEC migration). The conditions noted are these: for % Relative Area 2-3: LECs in area 2-3 relative to vehicle control; for % Relative Max Migration: furthest LEC migration from PCV relative to vehicle control; for % embryos with reduced migration: stages 35-36 tadpoles. The method, then: Xenopus tadpoles were used as a model (Ny et al Nature Medicine 11: 998-1004 (2005)) to analyze the effects of Compound 2 on lymphangiogenesis. The compound was administered daily in a dose dependent manner, with vehicle controls, to the medium of the Xenopus tadpoles starting at stage 26-28, i.e., before the formation of both blood and lymphatic vessels. The effects of the compound was monitored by “live analysis”, i.e. live embryos were examined 4 days later for evidence of lymph-vascular defects by trained observers. As an additional means of confirming the results, in a limited number of experiments, tadpoles were fixed at stage 35-36 and in situ hybridizations for Prox1 were performed to assess migration of lymphatic endothelial cells (LECs) from the posterior cardinal vein (PCV) to their dorsal endpoint, this reflecting an essential step in lymphangiogenesis. Under normal circumstances, LECs arise from the region of the PCV, accumulate there, and during the study period, they migrate dorsally to defined “areas” (Area 1 to Area 2 and Area 3), where they then further migrate rostrally and caudally to form the lymphatic vasculature in the tail and trunk. Defects in migration of the LECs from the PCV was quantified by determining the maximal migration of the cells, and by counting the number of cells in these different regions in the tail.

Data set [4] has as its target T1, VEGFR3. As to the kind of experiment: VEGFR3 in vitro kinase assay. The class given is biochemical. The conditions noted are these: 10 μM ATP. The method, then:
The VEGFR3 kinase reaction was performed at 30° C. for 10 minutes in a 96-well microtiterplate. The 25 μl reaction volume contained 8 mM MOPS pH 7, 200 μM EDTA, 10 mM MgAc, 10 μM unlabeled ATP, […] AT33P, 500 μM JAK3-tide (Ac-GGEEEEYFELVKKKK-NH2), 25 ng VEGFR3 and 2% compound in 100% DMSO.
The reaction was stopped by adding 5 μl of a 3% phosphoric acid solution. 10 μl of the reaction mixture was then spotted onto a Filtermat P30 filter (Wallac) and washed 3 times for 5 min. in 0.75% phosphoric acid and 1 time for 2 min. in methanol prior to transferring to a sealable plastic bag containing 4 ml of scintillation liquid and reading in a scintillation counter.

Data set [5] concerns VEGFR1 mediated VEGF signaling. Nature of the data set: VEGF stimulation of Erk1/2 in HMVEC-d cells. The class given is cell-based, human. Conditions: 5 μM, 10 ng/ml VEGF (FIG. 2). The method, then:
as §1

`COc1cc2ncnc3c2cc1OCCCCCN(C)Cc1ccc(Br)cc1N3` [Compound 2, 4,6-ethanediylidenepyrimido[4,5-b][6,1,12]benzoxadiazacyclo-pentadecine, 17-bromo-8,9,10,11,12,13,14,19-octahydro-20-methoxy-13-methyl-]: in data set [1], the “VEGF-C induced VEGFR-3 phosphorylation” value is “dose dependent reduction”. The “phosphorylation of Erk1/2 by VEGF-C” value in data set [2] was “prevented”. Further, the “% Relative Area 2-3” value in data set [3] (0.3125 μM) came to 37 ± 20%; in data set [3] (1.25 μM) it was 20 ± 8%; in data set [3] (5 μM) it was 123 ± 32%; in data set [3] (20 μM), 19 ± 8%; in data set [3] (80 μM), 56 ± 15%. The “% Relative Max Migration” value in data set [3] (0.3125 μM) is 73 ± 22%; in data set [3] (1.25 μM) it was 47 ± 5%; in data set [3] (5 μM), 121 ± 3%; in data set [3] (20 μM), 35 ± 1%; in data set [3] (80 μM) it was 67 ± 21%. For the same compound, the “% embryos with reduced migration” value in data set [3] (0.3125 μM) was 57%; in data set [3] (1.25 μM), 63%; in data set [3] (5 μM), 40%; in data set [3] (20 μM), 60%; in data set [3] (80 μM), 80%. Moreover, the “tadpoles that developed edema” value in data set [3] (20 uM, live screening) was found to be 10%. For the same compound, the tadpoles with hemorrhages in data set [3] (concentrations >50 uM, live screening) is 30%. In data set [3] (in vivo), the “effects in Xenopus tadpole model” value is listed as “phenocopy the effects of VEGF-C knockout”. The “Lymphatic Endothelial Cell (LEC) migration in tadpoles” value in data set [3] (stage 35-36 tadpoles) was “dose dependently inhibits”. The compound further had an IC50 in data set [4] of 18.2 nM. Further, the “VEGF stimulation of Erk1/2” value in data set [5] is listed as “did not interfere”.

`COc1cc2ncnc3c2cc1OCCCCCCOc1c(Cl)cccc1N3` [4,6-ethanediylidene-19H-pyrimido[4,5-b][6,13,1]benzodioxaazacyclo-pentadecine, 15-chloro-8,9,10,11,12,13-hexahydro-20-methoxy-] came in with a melting point of 255.5 to 260.2 °C.
